The values that follow come from US7208506B2, “Heteroarylethenyl derivatives, their manufacture and use as pharmaceutical agents” (Hoffmann-La Roche Inc., priority 2005, dated 2007).

This assay has as its system HCT 116 cells. Briefly: CellTiter-Glo Luminescent Cell Viability Assay in HCT 116 cells. In kind it is cell-based. The conditions noted are these: Homo sapiens, HCT-116, 120 h, HCT 116 human colon carcinoma cell viability, 120 h (5 days) incubation, 10 concentrations 30 μM to 0.0015 μM, triplicate. From the text: CellTiter-Glo™ Assay in HCT 116 Cells
The CellTiter-Glo™ Luminescent Cell Viability Assay (Promega) is a homogeneous method of determining the number of viable cells in culture based on quantitation of the ATP present, which signals the presence of metabolically active cells.
HCT 116 cells (human colon carcinoma, ATCC-No. CCl1-247) were cultivated in RPMI 1640 medium with GlutaMAX™ I (Invitrogen, Cat-No. 61870-010), 2.5% Fetal Calf Serum (FCS, Sigma Cat-No. F4135 (FBS)); 100 Units/ml penicillin/100 μg/ml streptomycin (=Pen/Strep from Invitrogen Cat. No. 15140). For the assay the cells were seeded in 384 well plates, 1000 cells per well, in the same medium. The next day the test compounds were added in various concentrations ranging from 30 μM to 0.0015 μM (10 concentrations, 1:3 diluted). After 5 days the CellTiter-Glo™ assay was done according to the instructions of the manufacturer (CellTiter-Glo™ Luminescent Cell Viability Assay, from Promega). In brief: the cell-plate was equilibrated to room temperature for approximately 30 minutes and than the CellTiter-Glo™ reagent was added. The contents were carefully mixed for 15 minutes to induce cell lysis. After 45 minutes the luminescent signal was measured in Victor 2, (scanning multiwell spectrophotometer, Wallac).
Medium: RPMI 1640 with GlutaMAX™ I (Invitrogen, Cat-Nr. 61870), 5% FCS (Sigma Cat.-No. F4135), Pen/Strep (Invitrogen, Cat No. 15140).
HCT116 (ATCC-No. CCl-247): 1000 cells in 60 μl per well of 384 well plate (Greiner 781098, μClear-plate white)
After seeding incubate plates 24 h at 37° C., 5% CO2
2nd. Day: Induction (Treatment with Compounds, 10 Concentrations):
In order to achieve a final concentration of 30 μM as highest concentration 3,5 μl of 10 mM compound stock solution were added directly to 163 μl media. Then step e) of the dilution procedure described below, was followed.
In order to achieve the second highest to the lowest concentrations, a serial dilution with dilution steps of 1:3 was followed according to the procedure (a–e) as described here below: • a) for the second highest concentration add 10 μl of 10 mM stock solution of compound to 20 μl dimethylsulfoxide (DMSO) • b) dilute 8×1:3 (always 10 μl to 20 μl DMSO) in this DMSO dilution row (results in 9 wells with concentrations from 3333.3 μM to 0.51 μM) • c) dilute each concentration 1: 47.6 (3.5 μl compound dilution to 163 μl media) • e) add 10 μl of every concentration to 60 μl media in the cell plate resulting in final concentration of DMSO : 0.3% in every well and resulting in 10 final concentration of compounds ranging from 30 μM to 0.0015 μM. • Each compound is tested in triplicate. • Incubate 120 h (5 days) at 37° C., 5% CO2
Analysis: • Add 30 μl CellTiter-Glo™ Reagent per well, • shake 15 minutes at room temperature • incubate further 45 minutes at room temperature without shaking
Measurement: • Victor 2 scanning multiwell spectrophotometer (Wallac), Luminescence mode (0.5 sec/read, 477 nm) • Determine IC50 using a non-linear curve fit (XLfit software (ID Business Solution Ltd., Guilford, Surrey, UK))
In general terms: Cellular ATP, detected with luciferase, serves as a proxy for viable cell number.

Counter-ions that a name gives are not always drawn.

For orientation: IC50 means the concentration that inhibits the measured activity by half. `Cc1ccc(C(=O)NS(=O)(=O)/C=C/c2ccncc2)c(C)c1` [Example 4-17, (E)-2-Pyridin-4-yl-ethenesulfonic acid 2,4-dimethyl-benzoylamide; sodium salt] showed an IC50 of 0.5 to 15 µM.

In the case of `O=C(NS(=O)(=O)/C=C/c1csc2ccccc12)c1ccc(F)cc1Cl` [Example 2-26, (E)-2-Benzo[b]thiophen-3-yl-ethenesulfonic acid 2-chloro-4-fluoro-benzoylamide; sodium salt], the IC50 is 0.5 to 15 µM. In the case of `Cc1ccc(/C=C/S(=O)(=O)NC(=O)c2ccc(Cl)cc2Cl)s1` [Example 1-8, (E)-2-(5-Methyl-thiophen-2-yl)-ethenesulfonic acid 2,4-dichloro-benzoylamide], the concentration for half-maximal inhibition (IC50) lay within 0.5 to 15 µM. Compound `Cc1cc(Cl)ccc1C(=O)NS(=O)(=O)/C=C/c1ccsc1` [Example 3-2, (E)-2-Thiophen-3-yl-ethenesulfonic acid 4-chloro-2-methyl-benzoylamide; sodium salt] registered an IC50 of 0.5 to 15 µM.

For `Cc1ccc(C(=O)NS(=O)(=O)/C=C/c2cccnc2)c(C)c1` [Example 4-16, (E)-2-Pyridin-3-yl-ethenesulfonic acid 2,4-dimethyl-benzoylamide; sodium salt], the IC50 fell in the range of 0.5 to 15 µM. In the case of `O=C(NS(=O)(=O)/C=C/c1csc2ccccc12)c1ccc(F)cc1Br` [Example 4-19, (E)-2-Benzo[b]thiophen-3-yl-ethenesulfonic acid 2-bromo-4-fluoro-benzoylamide; sodium salt], the IC50 was 0.5 to 15 µM. `O=C(NS(=O)(=O)/C=C/c1csc2ccccc12)c1ccc(Cl)cc1Cl` [Example 2-27, (E)-2-Benzo[b]thiophen-3-yl-ethenesulfonic acid 2,4-dichloro-benzoylamide; sodium salt] yielded an IC50 of 0.5 to 15 µM.

Take `Cc1cc(Br)ccc1C(=O)NS(=O)(=O)/C=C/c1ccccn1` [Example 4-4, (E)-2-Pyridin-2-yl-ethenesulfonic acid 4-bromo-2-methyl-benzoylamide; sodium salt]: the IC50 was in the range of 0.5 to 15 µM. The result for `O=C(NS(=O)(=O)/C=C/c1ccsc1)c1ccc(F)cc1Cl` [Example 1-3, (E)-2-Thiophen-3-yl-ethenesulfonic acid 2-chloro-4-fluoro-benzoylamide; sodium salt] reads 0.5 to 15 µM; that for `O=C(NS(=O)(=O)/C=C/c1ccccn1)c1ccc(Br)cc1Cl` [Example 4-7, (E)-2-Pyridin-2-yl-ethenesulfonic acid 4-bromo-2-chloro-benzoylamide; sodium salt], 0.5 to 15 µM. The compound `O=C(NS(=O)(=O)/C=C/c1csc2ccccc12)c1ccc(F)cc1C(F)(F)F` [Example 2-28, (E)-2-Benzo[b]thiophen-3-yl-ethenesulfonic acid 4-fluoro-2-trifluoromethyl-benzoylamide; sodium salt] came in with an IC50 of 0.5 to 15 µM. The result for `O=C(NS(=O)(=O)/C=C/c1ccccn1)c1ccc(Cl)cc1Cl` [Example 2-2, (E)-2-Pyridin-2-yl-ethenesulfonic acid 2,4-dichloro-benzoylamide; sodium salt] reads 0.5 to 15 µM; that for `O=C(NS(=O)(=O)/C=C/c1ccsc1)c1ccc(Br)cc1Cl` [Example 3-11, (E)-2-Thiophen-3-yl-ethenesulfonic acid 4-bromo-2-chloro-benzoylamide; sodium salt], 0.5 to 15 µM. As to `Cc1ccsc1/C=C/S(=O)(=O)NC(=O)c1ccc(Cl)cc1Cl` [Example 1-9, (E)-2-(3-Methyl-thiophen-2-yl)-ethenesulfonic acid 2,4-dichloro-benzoylamide], the 50% inhibitory concentration (IC50) is 0.5 to 15 µM. On to `O=C(NS(=O)(=O)/C=C/c1ccccn1)c1ccc(F)cc1Cl` [Example 2-6, (E)-2-Pyridin-2-yl-ethenesulfonic acid 2-chloro-4-fluoro-benzoylamide; sodium salt], for which the half-inhibitory concentration (IC50) is 0.5 to 15 µM.

Regarding `O=C(NS(=O)(=O)/C=C/c1sccc1Br)c1ccc(Cl)cc1Cl` [Example 2-24, (E)-2-(3-Bromo-thiophen-2-yl)-ethenesulfonic acid 2,4-dichloro-benzoylamide; sodium salt], the IC50 was 0.5 to 15 µM. As to `Cc1cccc(/C=C/S(=O)(=O)NC(=O)c2ccc(F)cc2Cl)n1` [Example 2-25, (E)-2-(6-Methyl-pyridin-2-yl)-ethenesulfonic acid 2-chloro-4-fluoro-benzoylamide; sodium salt], the IC50 was 0.5 to 15 µM. On to `O=C(NS(=O)(=O)/C=C/c1cccnc1Cl)c1ccc(Cl)cc1Cl` [Example 2-21, (E)-2-(2-Chloro-pyridin-3-yl)-ethenesulfonic acid 2,4-dichloro-benzoylamide; sodium salt], for which the IC50 was in the range of 0.5 to 15 µM.
